Series [1] relates to S. mutans. The following applies: Kubo et al. 1993; cited from earlier work.
Series [2] has as its system fungi. To be noted: Moleyar et al. 1986; cited from earlier work.
Series [3] has as its system bacteria and fungi in the test, except S. mutans and P. acnes. The series can be described thus: MIC test, all bacteria and fungi except S. mutans and P. acnes. It counts as cell-based. The following applies: all of the bacteria and fungi in the test. From the text: (§1) The microorganisms tested were from the American Type Culture Collection (Rockville, Md.). They are Bacillus subtilis ATCC 9372, Brevibacterium ammoniagenes ATCC 6872, Staphylococcus aureus ATCC 12598, Streptococus mutans ATCC 25175, Propionibacterium acnes ATCC 11827, Pseudimonas aeruginosa ATCC 10145, Enterobacter aerogenes ATCC 13048, Eschericia coli ATCC 9637, Proteus vulgaris ATCC […], Saccharomyces cerevisiae ATCC 7754, Candida utilis ATCC 9226, Pityrosporum ovale ATCC 14521, Penicillium chrysogenum ATCC 10106 and Trichophyton mentagrophytes ATCC 18748.
(§2) The bacterial culture media except for S. mutans was 0.8% nutrient broth (BBL), 0.5% yeast Extract (Difco) and 0.1% glucose (NYG broth). S. mutans was cultured in 3.7% brain heart infixsion broth (Difco). All fungi, except P. ovale and T. mentagrophytes were cultured in a 2.5% malt extract broth (BBL). P. ovale was cultured in 1% bactopeptone (Difco), 0.5% yeast extract, 1% glucose and 0.1% corn oil. For T. mentagrophytes the culture media was 1% bactopeptone and 4% glucose.
Freeze dried samples were prepared for testing as follows. […]
The minimum inhibitory concentration (MIC) of the 3-alken-2-ones (compounds 1-4, 6-8) and 3,13-tetradecadien-2-one (compound 5) was performed using a two-fold serial broth dilution. […] The MIC was determined as the lowest concentration for each compound that no growth was observed. […]

The test system of series [4] is Candia utilis ATCC 9226. The series can be described thus: MIC by two-fold serial broth dilution. It counts as cell-based, Candida utilis. To be noted: Williopsis jadinii, ATCC9226, 48 h; C. utilis; malt extract broth; two days, turbidity OD 660 nm.
From the text: as §1, §2
(§3) Freeze dried samples were prepared for testing as follows. B. subtilis, S. cerevisiae, C. utilis, and P. ovale, were shake-cultured for two days at 30° C. P. chrysogenum and T. mentagrophytes were shake-cultured for 5 days at 30° C. B. ammoniagenes and E. aerogenes were stationarily cultured at 30° C. S. aureus, S. mutans, P. acnes, P. aeruginosa, E. coli and P. vulgaris were stationarily cultured at 37° C.
(§4) The minimum inhibitory concentration (MIC) of the 3-alken-2-ones (compounds 1-4, 6-8) and 3,13-tetradecadien-2-one (compound 5) was performed using a two-fold serial broth dilution. Each test compound was dissolved in DMF and 30 μL of this sample was dissolved in 3 mL of the applicable medium. A 30 μL sample of the previously described culture of each microorganism was added to the various medium solutions. After two days, the cultures of B. subtilis, S. cerevisiae, C. utilis B. ammoniagenes, E. aerogenes, S. aureus, S. mutans, P. acnes, P. aeruginosa, E. coli and P. vulgaris were examined for turbidity (OD at 660 nm). The fungi, P. ovale, P. chrysogenum and T. mentagrophytes, were examined visually for growth at 3 days (P. ovale) and 5 days (P. chrysogenum and T. mentagrophytes). The MIC was determined as the lowest concentration for each compound that no growth was observed. The highest concentration used in these tests was 800 μg/mL.
(In general: Broth dilution looks for growth in wells or tubes with falling amounts of substance.)

Series [5] concerns Bacillus subtilis ATCC 9372. The series can be described thus: MIC by two-fold serial broth dilution. In kind it is cell-based. To be noted: Bacillus subtilis, ATCC9372, 48 h; B. subtilis; NYG broth; two days, turbidity OD 660 nm.
From the text: as §1, §2, §3, §4

Series [6] relates to Streptococus mutans ATCC 25175. Description: MIC by two-fold serial broth dilution. In kind it is cell-based. The following applies: Streptococcus mutans, ATCC25175, 48 h; S. mutans; brain heart infusion broth; two days, turbidity OD 660 nm.
From the text: as §1, §2, §3, §4

Series [7] has as its system Brevibacterium ammoniagenes ATCC 6872. The series can be described thus: MIC by two-fold serial broth dilution. It counts as cell-based. To be noted: Corynebacterium ammoniagenes, ATCC6872, 48 h; B. ammoniagenes; NYG broth; two days, turbidity OD 660 nm.
From the text: as §1, §2, §3, §4

For series [8], the system named is Trichophyton mentagrophytes ATCC 18748. The series can be described thus: MIC by two-fold serial broth dilution. In kind it is cell-based. To be noted: ATCC18748, 120 h, T. mentagrophytes, bactopeptone/glucose, 5 days, visual.
From the text: as §1, §2, §3, §4

For series [9], the system named is Propionibacterium acnes ATCC 11827. Description: MIC by two-fold serial broth dilution. It counts as cell-based. To be noted: P. acnes.
From the text: as §1, §2, §3, §4

Series [10] relates to Penicillium chrysogenum ATCC 10106. Description: MIC by two-fold serial broth dilution. The following applies: Penicillium chrysogenum, ATCC10106, 120 h; P. chrysogenum; malt extract broth; 5 days, visual. In kind it is cell-based.
From the text: as §1, §2, §3, §4

Series [11] deals with Saccharomyces cerevisiae ATCC 7754. Description: MIC by two-fold serial broth dilution. It counts as cell-based. To be noted: Saccharomyces cerevisiae, ATCC7754, 48 h; S. cerevisiae; malt extract broth; two days, turbidity OD 660 nm.
From the text: as §1, §2, §3, §4

The subject of series [12] is Proteus vulgaris ATCC 133315. The series can be described thus: MIC by two-fold serial broth dilution. It counts as cell-based. The following applies: ATCC133315, 48 h, P. vulgaris, NYG broth, two days, turbidity OD 660 nm.
From the text: as §1, §2, §3, §4

Series [13] concerns Staphylococcus aureus ATCC 12598. The series can be described thus: MIC by two-fold serial broth dilution. It counts as cell-based. To be noted: Staphylococcus aureus, ATCC12598, 48 h; S. aureus; NYG broth; two days, turbidity OD 660 nm.
From the text: as §1, §2, §3, §4

Series [14] has as its system Pityrosporum ovale ATCC 14521. Description: MIC by two-fold serial broth dilution. In kind it is cell-based. The following applies: 72 h; P. ovale; bactopeptone/yeast extract/glucose/corn oil; 3 days, visual.
From the text: as §1, §2, §3, §4

The test system of series [15] is Pseudimonas aeruginosa ATCC 10145. Description: MIC by two-fold serial broth dilution. It counts as cell-based. The following applies: Pseudomonas aeruginosa, ATCC10145, 48 h; P. aeruginosa; NYG broth; two days, turbidity OD 660 nm.
From the text: as §1, §2, §3, §4

The subject of series [16] is Eschericia coli ATCC 9637. Description: MIC by two-fold serial broth dilution. It counts as cell-based. The following applies: Escherichia coli, ATCC9637, 48 h; E. coli; NYG broth; two days, turbidity OD 660 nm.
From the text: as §1, §2, §3, §4

Series [17] deals with Enterobacter aerogenes ATCC 13048. The series can be described thus: MIC by two-fold serial broth dilution. It counts as cell-based. To be noted: Klebsiella aerogenes, ATCC13048, 48 h; E. aerogenes; NYG broth; two days, turbidity OD 660 nm.
From the text: as §1, §2, §3, §4

For series [18] the following is noted: background statement; cited from earlier work.

Converted amounts (≈) assume the structure as drawn. Bounds are passed on as bounds.

As for `CC(=O)/C=C/C1=C(C)CCCC1(C)C` [β-ionone], the “antibacterial activity (in words)” value in series [1] is given as “moderate antibacterial activity”.
Consider `C=C(C)C1CC=C(C)C(=O)C1` (centres unmarked) [Carvone], for which, in series [2], the “antifungal activity (in words)” value is recorded as “antifungal activity”.
As a reminder, the MIC is the lowest concentration that inhibits growth of the organism. Read a high MIC as a less susceptible organism. `CCCCCCCCCCCCC/C=C/C(C)=O` [Compound 8, (E)-3-Heptadecen-2-one]: the figures for the “activity (in words)” value in series [3] and in series [9] were “inactive” and “strong activity”, respectively. The MIC in series [4] was above 800 µg/mL; in [5], above 800 µg/mL; in series [6] it was 800 µg/mL (≈ 3.17 mM); in series [7] it was above 800 µg/mL; in [8], above 800 µg/mL; in series [9] (Cutibacterium acnes, ATCC11827, 48 h, NYG broth, two days, turbidity OD 660 nm) it was 3.13 µg/mL (≈ 0.0124 mM). Besides, the MIC in series [10], in series [11], in series [12], in series [13], in series [14] and in [15] was above 800 µg/mL in each case. Besides, the MIC in [16] and in series [17] was above 800 µg/mL each time.
On to ionone, for which, in series [18], the allergic skin reactions result is “can cause allergic skin reactions”.
For the molecule `CC(=O)/C=C/C1C(C)=CCCC1(C)C` (stereo not drawn) [α-ionone], the “antibacterial activity (in words)” value in series [1] is “moderate antibacterial activity”.

The values are drawn from US5604262A, “Topical antimicrobial agents” (Research Corporation Technologies, Inc., priority 1995, dated 1997).
